In patent publication US11325900B2, “5-(pyrimidin-4-yl)thiazol-2-yl urea derivatives as therapeutic agents” (AUCENTRA HOLDINGS PTY LTD, priority 2018, dated 2022):

How the values were obtained:
[1] = target: T1, CDK8/CycC (Homo sapiens, UniProt P49336); experiment: Radiometric protein kinase assay (33PanQinase Activity Assay, ProQinase); format: biochemical; settings: 1.0 μM ATP, 1.0 μg/50 μL substrate RBER-IRStide, duplicate measurements, read-out: CDK8 Kinase inhibition IC50
T1 construct: purchased ProQinase GmbH, Freiburg, Germany
T1 sequence (P49336 whole entry): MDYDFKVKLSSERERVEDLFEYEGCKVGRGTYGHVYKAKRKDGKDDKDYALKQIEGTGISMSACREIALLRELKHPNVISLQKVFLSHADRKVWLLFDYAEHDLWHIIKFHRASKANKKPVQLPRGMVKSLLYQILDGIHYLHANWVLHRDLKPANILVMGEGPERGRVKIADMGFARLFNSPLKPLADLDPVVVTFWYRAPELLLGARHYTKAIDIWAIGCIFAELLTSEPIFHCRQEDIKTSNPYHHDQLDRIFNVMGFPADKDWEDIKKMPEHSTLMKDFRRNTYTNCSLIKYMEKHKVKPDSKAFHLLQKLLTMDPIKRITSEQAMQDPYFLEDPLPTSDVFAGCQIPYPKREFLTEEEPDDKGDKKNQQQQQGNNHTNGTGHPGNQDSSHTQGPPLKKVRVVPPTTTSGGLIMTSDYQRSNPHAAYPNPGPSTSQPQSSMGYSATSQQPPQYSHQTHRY
T1 sequence (P24863 whole entry partner): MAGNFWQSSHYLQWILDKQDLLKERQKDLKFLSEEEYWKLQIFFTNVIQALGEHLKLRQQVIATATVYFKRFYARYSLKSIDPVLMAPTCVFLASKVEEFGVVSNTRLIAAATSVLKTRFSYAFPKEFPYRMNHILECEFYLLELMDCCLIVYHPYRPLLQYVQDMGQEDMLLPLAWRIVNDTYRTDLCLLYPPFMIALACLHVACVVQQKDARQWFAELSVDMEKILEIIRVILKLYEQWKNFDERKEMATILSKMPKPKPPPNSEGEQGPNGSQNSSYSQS
Protocol: The kinase activity of CDK8/CycC was measured using a radiometric protein kinase assay (33PanQinase® Activity Assay) by ProQinase GmbH, Freiburg, Germany, with the protocols shown at www.proqinase.com/sites/default/files/public/uploads/WildtypeProfiler/radiometric_assay_v05_2012_manual.pdf. IC50 determination (8.3 nM with 1.0 μM ATP and 1.0 μg/50 μL of substrate RBER-IRStide) was performed as duplicate measurements and calculated using Quattro Workflow V3.1.1 (Quattro Research GmbH, Germany). Apparent inhibition constants (Ki) values were calculated from Km (ATP) and IC50 values for the respective kinases.

[2] = system: MV-4-11; experiment: Cell viability assay (resazurin, leukemia cell lines), 72 h growth inhibition; format: cell-based; settings: Homo sapiens, MV4-11, MV-4-11 cells
Description: (§1) Compounds from Example 1 may be subjected to a standard MTT (3-(4,5-dimethylthiazol-2-yl)-2,5-diphenyltetrazolium bromide) and resazurin assays on solid tumour cell lines and leukemia cell lines, respectively, as previously reported (Wang S et al., J Med Chem 47:1662-1675, 2004 and Diab S e al. CheMedChem 9:962-972, 2014). Compound concentrations required to inhibit 50% of cell growth (GI50) can be calculated using non-linear regression analysis.

[3] = system: HCT-116; experiment: Cell viability assay (MTT, solid tumour cell lines), 72 h growth inhibition; format: cell-based; settings: Homo sapiens, HCT-116 cells
Description: as §1

IC50 [1] | GI50 [2] | GI50 [3] | Structure (SMILES)
36 nM | 639 ± 120 nM | 1510 ± 60 nM | CNc1nccc(-c2sc(NC(=O)Nc3ccccc3)nc2C)n1 [Compound 1, 1-(4-Methyl-5-(2-(methylamino)pyrimidin-4-yl)thiazol-2-yl)-3-phenylurea]
42 nM | 952 ± 200 nM | 1590 ± 60 nM | CNc1nccc(-c2sc(NC(=O)Nc3ccccc3F)nc2C)n1 [Compound 3, 1-(2-Fluorophenyl)-3-(4-methyl-5-(2-(methylamino)pyrimidin-4-yl)thiazol-2-yl)urea]
49 nM | 457 ± 180 nM | 537 ± 140 nM | CNc1nccc(-c2sc(NC(=O)Nc3ccccc3OC)nc2C)n1 [Compound 4, 1-(2-Methoxyphenyl)-3-(4-methyl-5-(2-(methylamino)pyrimidin-4-yl)thiazol-2-yl)urea]
25 nM | 3810 ± 580 nM | 7100 ± 960 nM | CNc1nccc(-c2sc(NC(=O)Nc3ccc(C(F)(F)F)c(Cl)c3)nc2C)n1 [Compound 5, 1-(3-Chloro-4-(trifluoromethyl)-phenyl)-3-(4-methyl-5-(2-(methylamino)pyrimidin-4-yl)thiazol-2-yl)urea]
7 nM | 2110 ± 1640 nM | 6400 ± 270 nM | CNc1nccc(-c2sc(NC(=O)Nc3cccc(Br)c3)nc2C)n1 [Compound 12, 1-(3-Bromophenyl)-3-(4-methyl-5-(2-(methylamino)pyrimidin-4-yl)thiazol-2-yl)urea]
6 nM | 3900 ± 1100 nM | 2770 ± 210 nM | CNc1nccc(-c2sc(NC(=O)Nc3cccc(C)c3)nc2C)n1 [Compound 13, 1-(4-Methyl-5-(2-(methylamino)pyrimidin-4-yl)thiazol-2-yl)-3-(m-tolyl)urea]
10 nM | 585 ± 30 nM | 5080 ± 820 nM | CNc1nccc(-c2sc(NC(=O)Nc3cccc([N+](=O)[O-])c3)nc2C)n1 [Compound 14, 1-(4-Methyl-5-(2-(methylamino)pyrimidin-4-yl)thiazol-2-yl)-3-(3-nitrophenyl)urea]
8 nM | 565 ± 40 nM | 6250 ± 610 nM | CNc1nccc(-c2sc(NC(=O)Nc3cccc(C#N)c3)nc2C)n1 [Compound 15, 1-(3-Cyanophenyl)-3-(4-methyl-5-(2-(methylamino)pyrimidin-4-yl)thiazol-2-yl)urea]
9 nM | 3350 ± 190 nM | 6130 ± 910 nM | CNc1nccc(-c2sc(NC(=O)Nc3cccc(SC)c3)nc2C)n1 [Compound 21, 1-(4-Methyl-5-(2-(methylamino)-pyrimidin-4-yl)thiazol-2-yl)-3-(3-(methylthio)phenyl)urea]
20 nM | 4630 ± 1560 nM | 4310 ± 750 nM | CNc1nccc(-c2sc(NC(=O)Nc3cccc(SC(F)(F)F)c3)nc2C)n1 [Compound 22, 1-(4-Methyl-5-(2-(methylamino)-pyrimidin-4-yl)thiazol-2-yl)-3-(3-((trifluoromethyl)thio)phenyl)urea]
26 nM | 3170 ± 530 nM | 4960 ± 120 nM | CNc1nccc(-c2sc(NC(=O)Nc3cccc(S(=O)(=O)C(F)(F)F)c3)nc2C)n1 [Compound 23, 1-(4-Methyl-5-(2-(methylamino)pyrimidin-4-yl)-thiazol-2-yl)-3-(3-((trifluoromethyl)-sulfonyl)phenyl)urea]
12 nM | 3480 ± 9530 nM | 7250 ± 310 nM | CNc1nccc(-c2sc(NC(=O)Nc3ccc(Cl)c(C(F)(F)F)c3)nc2C)n1 [Compound 24, 1-(4-Chloro-3-(trifluoromethyl)-phenyl)-3-(4-methyl-5-(2-(methylamino)-pyrimidin-4-yl)thiazol-2-yl)urea]
13 nM | 2230 ± 140 nM | 5850 ± 1140 nM | CNc1nccc(-c2sc(NC(=O)Nc3ccc(F)c(C(F)(F)F)c3)nc2C)n1 [Compound 25, 1-(4-Fluoro-3-(trifluoromethyl)phenyl)-3-(4-methyl-5-(2-(methylamino)-pyrimidin-4-yl)thiazol-2-yl)urea]
53 nM | 4160 ± 800 nM | 5640 ± 320 nM | CNc1nccc(-c2sc(NC(=O)Nc3ccc(C(F)(F)F)c(C(F)(F)F)c3)nc2C)n1 [Compound 27, 1-(3,4-Bis(trifluoromethyl)phenyl)-3-(4-methyl-5-(2-(methylamino)-pyrimidin-4-yl)thiazol-2-yl)urea]
13 nM | 2160 ± 1170 nM | 7770 ± 430 nM | CNc1nccc(-c2sc(NC(=O)Nc3ccc(C)c(Cl)c3)nc2C)n1 [Compound 29, 1-(3-Chloro-4-methylphenyl)-3-(4-methyl-5-(2-(methylamino)-pyrimidin-4-yl)thiazol-2-yl)urea]
12 nM | < 1 nM | 366 ± 90 nM | CNc1nccc(-c2sc(NC(=O)Nc3ccc(CN4CCN(C)CC4)c(C(F)(F)F)c3)nc2C)n1 [Compound 32, 1-(4-Methyl-5-(2-(methylamino)-pyrimidin-4-yl)thiazol-2-yl)-3-(4-((4-methylpiperazin-1-yl)methyl)-3-(trifluoromethyl)phenyl)urea]

Second part, the compound before the results:

Structure (SMILES) | IC50 [1] | GI50 [2] | GI50 [3]
CNc1nccc(-c2sc(NC(=O)Nc3cc(C(F)(F)F)ccc3C(F)(F)F)nc2C)n1 [Compound 9, 1-(2,5-Bis(trifluoromethyl)phenyl)-3-(4-methyl-5-(2-(methylamino)-pyrimidin-4-yl)thiazol-2-yl)urea] | 41 nM | 526 ± 40 nM | 519 ± 160 nM
CNc1nccc(-c2sc(NC(=O)Nc3cccc(C(F)(F)F)c3)nc2C)n1 [Compound 10, 1-(4-Methyl-5-(2-(methylamino)-pyrimidin-4-yl)thiazol-2-yl)-3-(3-(trifluoromethyl)phenyl)urea] | 10 nM | 870 ± 360 nM | 510 ± 30 nM
CNc1nccc(-c2sc(NC(=O)Nc3cccc(Cl)c3)nc2C)n1 [Compound 11, 1-(3-Chlorophenyl)-3-(4-methyl-5-(2-(methylamino)pyrimidin-4-yl)thiazol-2-yl)urea] | 33 nM | 1480 ± 1320 nM | 693 ± 30 nM
CNc1nccc(-c2sc(NC(=O)Nc3cccc(C(C)C)c3)nc2C)n1 [Compound 17, 1-(3-Isopropylphenyl)-3-(4-methyl-5-(2-(methylamino)pyrimidin-4-yl)thiazol-2-yl)urea] | 15 nM | 3510 ± 790 nM | 5970 ± 723 nM
CNc1nccc(-c2sc(NC(=O)Nc3cccc(OC(F)(F)F)c3)nc2C)n1 [Compound 18, 1-(4-Methyl-5-(2-(methylamino)-pyrimidin-4-yl)thiazol-2-yl)-3-(3-(trifluoromethoxy)phenyl)urea] | 25 nM | 5000 ± 630 nM | 4290 ± 523 nM
CNc1nccc(-c2sc(NC(=O)Nc3cccc(OC(F)F)c3)nc2C)n1 [Compound 20, 1-(3-(Difluoromethoxy)phenyl)-3-(4-methyl-5-(2-(methylamino)-pyrimidin-4-yl)thiazol-2-yl)urea] | 6 nM | 939 ± 60 nM | 4530 ± 980 nM
CNc1nccc(-c2sc(NC(=O)Nc3ccc(C)c(C(F)(F)F)c3)nc2C)n1 [Compound 26, 1-(4-Methyl-3-(trifluoromethyl)-phenyl)-3-(4-methyl-5-(2-(methylamino)pyrimidin-4-yl)thiazol-2-yl)urea] | 15 nM | 2560 ± 490 nM | 5100 ± 660 nM
CNc1nccc(-c2sc(NC(=O)Nc3ccc(C(F)(F)F)c(F)c3)nc2C)n1 [Compound 28, 1-(3-Fluoro-4-(trifluoromethyl)phenyl)-3-(4-methyl-5-(2-(methylamino)-pyrimidin-4-yl)thiazol-2-yl)urea] | 26 nM | 3280 ± 640 nM | 772 ± 250 nM
CNc1nccc(-c2sc(NC(=O)Nc3ccc(Cl)c(C)c3)nc2C)n1 [Compound 30, 1-(4-Chloro-3-methylphenyl)-3-(4-methyl-5-(2-(methylamino)-pyrimidin-4-yl)thiazol-2-yl)urea] | 8 nM | 4390 ± 1020 nM | 2350 ± 3210 nM
CNc1nccc(-c2sc(NC(=O)Nc3ccc(CN4CCOCC4)c(Cl)c3)nc2C)n1 [Compound 31, 1-(3-Chloro-4-(morpholinomethyl)phenyl)-3-(4-methyl-5-(2-(methylamino)-pyrimidin-4-yl)thiazol-2-yl)urea] | 22 nM | 945 ± 50 nM | 6830 ± 1010 nM
CCN1CCN(Cc2ccc(NC(=O)Nc3nc(C)c(-c4ccnc(NC)n4)s3)cc2C(F)(F)F)CC1 [Compound 33, 1-(4-((4-Ethylpiperazin-1-yl)methyl)-3-(trifluoromethyl)phenyl)-3-(4-methyl-5-(2-(methylamino)-pyrimidin-4-yl)thiazol-2-yl)urea] | 10 nM | < 1 nM | 457 ± 30 nM
CNc1nccc(-c2sc(NC(=O)Nc3ccc(CN4CCOCC4)c(C(F)(F)F)c3)nc2C)n1 [Compound 37, 1-(4-Methyl-5-(2-(methylamino)-pyrimidin-4-yl)thiazol-2-yl)-3-(4-(morpholinomethyl)-3-(trifluoromethyl)phenyl)urea] | 9 nM | 68 ± 30 nM | 7840 ± 390 nM
CNc1nccc(-c2sc(NC(=O)Nc3ccc(Cl)cc3)nc2C)n1 [Compound 43] | 9 nM | 1520 ± 800 nM | 5960 ± 440 nM
CNc1nccc(-c2sc(NC(=O)Nc3ccc(C)cc3)nc2C)n1 [Compound 44, 1-(4-Methyl-5-(2-(methylamino)pyrimidin-4-yl)thiazol-2-yl)-3-(p-tolyl)urea] | 7 nM | 2600 ± 460 nM | 2370 ± 50 nM
